The structures appear in SMILES notation.

For this assay, the target named is T1, GBA1 (Homo sapiens, UniProt P04062).
T1 construct: endogenous in cells; host or cells: wild-type HEK293T
T1 sequence (P04062 40-536): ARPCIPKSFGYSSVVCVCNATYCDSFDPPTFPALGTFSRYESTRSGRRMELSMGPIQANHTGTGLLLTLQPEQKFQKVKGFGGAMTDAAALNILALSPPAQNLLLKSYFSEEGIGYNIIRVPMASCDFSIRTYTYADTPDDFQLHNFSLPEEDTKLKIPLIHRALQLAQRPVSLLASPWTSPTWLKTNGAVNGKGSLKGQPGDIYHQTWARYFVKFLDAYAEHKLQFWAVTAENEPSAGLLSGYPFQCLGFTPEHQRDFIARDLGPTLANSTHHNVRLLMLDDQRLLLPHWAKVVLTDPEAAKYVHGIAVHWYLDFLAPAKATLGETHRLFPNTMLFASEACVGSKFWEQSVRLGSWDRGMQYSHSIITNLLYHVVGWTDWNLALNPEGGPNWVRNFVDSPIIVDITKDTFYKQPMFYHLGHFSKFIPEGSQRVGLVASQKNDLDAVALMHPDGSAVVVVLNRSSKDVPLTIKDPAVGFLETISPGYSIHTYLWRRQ
In words: In situ labelling of wild-type HEK293T cells, GBA1. The class given is cell-based. Conditions: wild-type HEK293T intact cells; for GBA1 labelling in situ: 500 nM, 2.5 h. On the procedure:
Importantly, the GBA2 selectivity of β-D-Araf ABPs 3–5 was maintained during in situ labelling of wild-type HEK293T cells (ESI Fig. S9 ^†). […] Even after 24 h incubation, similar results were obtained: ABP 4 selectively labelled GBA2 at 10 nM, with only slight concomitant GBA1 labelling at concentrations higher than 100 nM (ESI Fig. S10 ^†). Selective GBA2 labelling by ABP 3 and 4 finally was also observed in human retinal pigment epithelial-1 cells (Fig. 5C).
Figure S9. Fluorescent gel images of in situ labelling of wild-type HEK293T cells by β-D-Araf aziridine ABPs 3-5.
β-D-Araf ABPs were firstly incubated with intact wild-type HEK293T cells for 1 or 2.5 h (1st incubation) and then cells were harvested. Lysis buffers containing different competitors (1 µM ABP or cyclophellitol inhibitor (CP, 1 µM for 150 nM set, 2 µM for 500 nM set)) was added to the harvested cells, cells were lysed, and lysate was incubated on ice for 30 min and additional 30 min at 37 °C (2nd incubation). Labelling of residual β-glucosidases was performed using ABPs 7 (for 3), 8 (for 4), or 9 (for 5) at 500 nM.
Figure S10. Fluorescent gel images of A) intact HEK293T wild-type cells labeled by β-D-Araf aziridine ABPs 3-5. […]
2.13 In situ intact cells labelling and inhibition assays
Confluent HEK293T cells expressing human endogenous GBA1 and GBA2/GBA3 OE, wild-type HEK293T cells or wild-type human retinal pigment epithelial-1 (RPE-1) cells were cultured in 12-well plates for duplicates or triplicates with (or without) compounds (3-5) for the described incubation times using the conditions as described for the cell culture. The cells were harvested as described in the cell lysis method. After determination of the protein concentration by BCA assay, the lysates were adjusted to 10 μL by addition of potassium phosphate buffer in order to normalize the amount of protein loaded (to 10-25 μg total protein per measurement), and subjected to the ABPP as […]
2.14 In situ visualization of GBA2 for confocal microscopy
HEK293T WT, GBA2 overexpression (GBA1 endogenous and GBA2 OE) and GBA1/GBA2 knockout (KO) GBA2 overexpression (GBA1/2 KO GBA2 OE) cells were cultured in DMEM High Glucose (Capricon Scientific) supplemented with 10% fetal calf serum, 1% (v/v) GlutaMax and 0.1% (w/v) penicillin/streptomycin.2,6 Cells were grown to approximately 75% confluence on Ø15 mm glass coverslips coated with 0.1 mg/ml poly-L-Lysine.
Samples were pretreated for 16 h with 100 nM of a GBA1 inhibitor (218, 0.5% DMSO), 500 nM of a GBA1 and GBA2 inhibitor (229, 0.5% DMSO) or with 0.5% DMSO alone. GBA2 was subsequently incubated by the addition of 50 nM ABP 4 (BODIPY-Red) to cells for 2 h at 37 °C with 5% CO2.
Unbound probe was washed away with PBS and cells were fixed with 4% paraformaldehyde (Alfa Aesar)/PBS for 15 min at RT. […]

Take `CC1=CC(C)=[N+]2C1=C(CCCCc1cn(CCCCCCCCN3[C@@H]4[C@H](CO)[C@@H](O)[C@H](O)[C@@H]43)nn1)c1c(C)cc(C)n1[B-]2(F)F` (stereo partly shown) [ABP 3]: the “GBA1 labelling in situ” value is “did not visibly label GBA1”.
Turning to `COc1ccc(C2=[N+]3C(=C(CCCCc4cn(CCCCCCCCN5[C@@H]6[C@H](CO)[C@@H](O)[C@H](O)[C@@H]65)nn4)c4ccc(-c5ccc(OC)cc5)n4[B-]3(F)F)C=C2)cc1` (stereo partly shown) [ABP 4], the “GBA1 labelling in situ” value is “did not visibly label GBA1”. Besides, for the setting “24 h incubation”, the “Concentrations giving slight concomitant GBA1 labelling in situ” value was “higher than 100 nM”.
On to `CN1/C(=C/C=C/C=C/C2=[N+](CCCCCC(=O)NCc3cn(CCCCCCCCN4[C@@H]5[C@H](CO)[C@@H](O)[C@H](O)[C@@H]54)nn3)c3ccccc3C2(C)C)C(C)(C)c2ccccc21` (stereo partly shown) [ABP 5], for which the “GBA1 labelling in situ” value is “GBA1 labelling only occurred when using a high concentration (500 nM) and longer incubation time (2.5 h)”.

Values taken from publication PMC11375437, “Selective labelling of GBA2 in cells with fluorescent β-D-arabinofuranosyl cyclitol aziridines” (Chemical Science, 2024).
